# Experimental data reported in patent US10792289B2 (Horizon Orphan LLC, priority 2009, dated 2020).
# Read-outs that look alike come from different tables or passages of the source.
# Tested on: P. aeruginosa isolates
# Test: Phase 2 study: MIC of P. aeruginosa isolates to levofloxacin
# Format: cell-based
# Settings: Pseudomonas aeruginosa
# Protocol: Efficacy was evaluated by microbiologic assessment of sputum samples, time to need for anti-pseudomonal antimicrobials, the Cystic Fibrosis Questionaire-Revised (CFQ-R), and pulmonary function tests. […] Pair-wise comparisons between all the treatment arms were conducted as secondary analyses.
structure (smiles),measurement,setting,value
"C[C@H]1COc2c(N3CCN(C)CC3)c(F)cc3c(=O)c(C(=O)O)cn1c23 [Levofloxacin, levofloxacin]",MIC90,"672 h, MITT, combined 240 mg QD and BID, Day 28, read-out: Highest MIC, MIC90",32 µg/mL
same,MIC50,"672 h, MITT, combined 240 mg QD and BID, Day 28, read-out: MIC50 (all organisms)",4 µg/mL
same,MIC90,"672 h, MITT, combined 240 mg QD and BID, Day 28, read-out: MIC90 (all organisms)",16 µg/mL
same,MIC50,"672 h, Table 14, EE, 120 mg QD, Day 28, read-out: MIC50 (all organisms)",8 µg/mL
same,MIC90,"672 h, Table 14, EE, 120 mg QD, Day 28, read-out: MIC90 (all organisms)",32 µg/mL
same,MIC50,"672 h, Table 14, EE, 240 mg BID, Day 28, read-out: MIC50 (all organisms)",8 µg/mL
same,MIC90,"672 h, Table 14, EE, 240 mg BID, Day 28, read-out: MIC90 (all organisms)",32 µg/mL
same,MIC50,"672 h, Table 14, EE, 240 mg QD, Day 28, read-out: MIC50 (all organisms)",8 µg/mL
same,MIC90,"672 h, Table 14, EE, 240 mg QD, Day 28, read-out: MIC90 (all organisms)",16 µg/mL
same,MIC50,"672 h, Table 14, EE, combined 240 mg QD and BID, Day 28, read-out: MIC50 (all organisms)",8 µg/mL
same,MIC90,"672 h, Table 14, EE, combined 240 mg QD and BID, Day 28, read-out: MIC90 (all organisms)",32 µg/mL
same,MIC,"672 h, read-out: Highest MIC to levofloxacin, mean (SD), MITT, 120 mg QD, Day 28",12.7 µg/mL
same,MIC,"672 h, read-out: Highest MIC to levofloxacin, mean (SD), MITT, 240 mg BID, Day 28",17.9 µg/mL
same,MIC,"672 h, read-out: Highest MIC to levofloxacin, mean (SD), MITT, 240 mg QD, Day 28",9.17 µg/mL
same,MIC,"672 h, read-out: Highest MIC to levofloxacin, mean (SD), MITT, combined 240 mg QD and BID, Day 28",13.5 µg/mL
same,MIC,"672 h, read-out: MIC to levofloxacin (all organisms), mean (SD), EE, 120 mg QD, Day 28",8.9 µg/mL
same,MIC,"672 h, read-out: MIC to levofloxacin (all organisms), mean (SD), EE, 240 mg BID, Day 28",10.1 µg/mL
same,MIC,"672 h, read-out: MIC to levofloxacin (all organisms), mean (SD), EE, 240 mg QD, Day 28",6 µg/mL
same,MIC,"672 h, read-out: MIC to levofloxacin (all organisms), mean (SD), EE, combined 240 mg QD and BID, Day 28",8 µg/mL
same,MIC,"672 h, read-out: MIC to levofloxacin (all organisms), mean (SD), MITT, 120 mg QD, Day 28",8.8 µg/mL
same,MIC,"672 h, read-out: MIC to levofloxacin (all organisms), mean (SD), MITT, 240 mg BID, Day 28",9.9 µg/mL
same,MIC,"672 h, read-out: MIC to levofloxacin (all organisms), mean (SD), MITT, 240 mg QD, Day 28",5.9 µg/mL
same,MIC,"672 h, read-out: MIC to levofloxacin (all organisms), mean (SD), MITT, combined 240 mg QD and BID, Day 28",7.9 µg/mL
same,MIC,"672 h, read-out: MIC to levofloxacin (all organisms), mean (SD), Table 14, EE, 120 mg QD, Day 28",12.9 µg/mL
same,MIC,"672 h, read-out: MIC to levofloxacin (all organisms), mean (SD), Table 14, EE, 240 mg BID, Day 28",18 µg/mL
same,MIC,"672 h, read-out: MIC to levofloxacin (all organisms), mean (SD), Table 14, EE, 240 mg QD, Day 28",9.42 µg/mL
same,MIC,"672 h, read-out: MIC to levofloxacin (all organisms), mean (SD), Table 14, EE, combined 240 mg QD and BID, Day 28",13.6 µg/mL
same,MIC50,"EE and MITT, 120 mg QD, baseline, read-out: MIC50 for P. aeruginosa isolates",8 µg/mL
same,MIC90,"EE and MITT, 120 mg QD, baseline, read-out: MIC90 for P. aeruginosa isolates",32 µg/mL
same,MIC50,"EE and MITT, 240 mg BID, baseline, read-out: MIC50 for P. aeruginosa isolates",6 µg/mL
same,MIC90,"EE and MITT, 240 mg BID, baseline, read-out: MIC90 for P. aeruginosa isolates",32 µg/mL
same,MIC50,"EE and MITT, 240 mg QD, baseline, read-out: MIC50 for P. aeruginosa isolates",4 µg/mL
same,MIC90,"EE and MITT, 240 mg QD, baseline, read-out: MIC90 for P. aeruginosa isolates",32 µg/mL
same,MIC,"all patients, baseline (n=592 isolates), read-out: Median baseline MIC of all isolates",4 µg/mL
same,MIC90,read-out: Baseline MIC90 of all isolates,16 µg/mL
same,MIC,"read-out: Highest MIC to levofloxacin, mean (SD), MITT, 120 mg QD, Day 1",14.3 µg/mL
same,MIC,"read-out: Highest MIC to levofloxacin, mean (SD), MITT, 240 mg BID, Day 1",11.4 µg/mL
same,MIC,"read-out: Highest MIC to levofloxacin, mean (SD), MITT, 240 mg QD, Day 1",9.06 µg/mL
same,MIC,"read-out: Highest MIC to levofloxacin, mean (SD), MITT, combined 240 mg QD and BID, Day 1",10.2 µg/mL
same,MIC,"read-out: MIC to levofloxacin (all organisms), mean (SD), EE, 120 mg QD, Day 1",11.5 µg/mL
same,MIC,"read-out: MIC to levofloxacin (all organisms), mean (SD), EE, 240 mg BID, Day 1",6.8 µg/mL
same,MIC,"read-out: MIC to levofloxacin (all organisms), mean (SD), EE, 240 mg QD, Day 1",6.3 µg/mL
same,MIC,"read-out: MIC to levofloxacin (all organisms), mean (SD), EE, combined 240 mg QD and BID, Day 1",6.5 µg/mL
same,MIC,"read-out: MIC to levofloxacin (all organisms), mean (SD), MITT, 120 mg QD, Day 1",11 µg/mL
same,MIC,"read-out: MIC to levofloxacin (all organisms), mean (SD), MITT, 240 mg BID, Day 1",6.8 µg/mL
same,MIC,"read-out: MIC to levofloxacin (all organisms), mean (SD), MITT, 240 mg QD, Day 1",6.1 µg/mL
same,MIC,"read-out: MIC to levofloxacin (all organisms), mean (SD), MITT, combined 240 mg QD and BID, Day 1",6.4 µg/mL
same,MIC,"read-out: MIC to levofloxacin (all organisms), mean (SD), Table 14, EE, 120 mg QD, Day 1",15 µg/mL
same,MIC,"read-out: MIC to levofloxacin (all organisms), mean (SD), Table 14, EE, 240 mg BID, Day 1",11.6 µg/mL
same,MIC,"read-out: MIC to levofloxacin (all organisms), mean (SD), Table 14, EE, 240 mg QD, Day 1",9.35 µg/mL
same,MIC,"read-out: MIC to levofloxacin (all organisms), mean (SD), Table 14, EE, combined 240 mg QD and BID, Day 1",10.5 µg/mL
